ChEMBL document CHEMBL1201862, “PubChem BioAssay data set” (2004)
Calls of active or inactive are those of the source.

Assays:
[1] = molecular target: T1, Mannose-6-phosphate isomerase (Homo sapiens, UniProt P34949); test: human PMI inhibitors, high substrate, primary screen, biochemical, fluorescence intensity, high mannose 6-phosphate (AID 1220)
T1 sequence (P34949 whole entry): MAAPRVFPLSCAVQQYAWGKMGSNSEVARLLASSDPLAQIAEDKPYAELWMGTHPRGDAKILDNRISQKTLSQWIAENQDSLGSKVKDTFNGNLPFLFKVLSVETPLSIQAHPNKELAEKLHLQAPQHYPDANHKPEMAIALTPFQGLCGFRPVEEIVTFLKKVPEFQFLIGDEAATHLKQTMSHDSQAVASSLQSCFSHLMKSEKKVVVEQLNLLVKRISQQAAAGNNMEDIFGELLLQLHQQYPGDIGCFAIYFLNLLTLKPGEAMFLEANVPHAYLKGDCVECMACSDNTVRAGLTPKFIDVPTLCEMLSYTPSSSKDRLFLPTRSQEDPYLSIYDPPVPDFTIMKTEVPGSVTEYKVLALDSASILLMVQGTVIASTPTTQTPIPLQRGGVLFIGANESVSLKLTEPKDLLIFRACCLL

Large T antigen = Large T antigen (Simian virus 40, UniProt P03070); type: functional, Betapolyomavirus macacae;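 also: Confirmatory-stage PubChem screen for compounds that inhibit SV40 T antigen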
[2] = molecular target: Induced myeloid leukemia cell differentiation protein Mcl-1 (Homo sapiens, UniProt Q07820); type: functional
[3] = molecular target: T2, Peroxisome proliferator-activated receptor gamma/Nuclear receptor coactivator 1 (Homo sapiens, UniProt P37231); test: TR-FRET dose response biochemical High Throughput Screening assay for agonists of the steroid receptor coactivator 1 (SRC-1) recruitment by the peroxisome proliferator-activated receptor gamma (PPAR gamma): non-selective agonists. [Related pubchem assays (depositor defined):AID1300, AID1808, AID504735, AID631]; type: protein assay
[4] = molecular target: T3, Peroxisome proliferator-activated receptor gamma/Nuclear receptor coactivator 2 (Homo sapiens, UniProt P37231); test: (§1) TR-FRET dose response biochemical High Throughput Screening assay for agonists of the steroid receptor coactivator 2 (SRC-2) recruitment by the peroxisome proliferator-activated receptor gamma (PPAR gamma): non-selective agonists. [Related pubchem assays: 1297, 1032 ]; type: functional
[5] = molecular target: T4, Peroxisome proliferator-activated receptor gamma/Nuclear receptor coactivator 3 (Homo sapiens, UniProt P37231); test: as §1, with “3 (SRC-3)” for “2 (SRC-2)”, “1301 (Confirmation screen.), 1048 (Primary screen.)]” for “1297, 1032 ]”; type: functional
[6] = molecular target: T3, Peroxisome proliferator-activated receptor gamma/Nuclear receptor coactivator 2; type: functional
[7] = molecular target: T2, Peroxisome proliferator-activated receptor gamma/Nuclear receptor coactivator 1; type: functional
[8] = molecular target: T4, Peroxisome proliferator-activated receptor gamma/Nuclear receptor coactivator 3; type: functional
[9] = molecular target: Dual specificity tyrosine-phosphorylation-regulated kinase 1A (Rattus norvegicus, UniProt Q63470); type: biochemical, Homo sapiens
Prothrombin = Prothrombin (Homo sapiens, UniProt P00734); test: Thrombin 1536 HTS Dose Response Confirmation. [Related pubchem assays: 1046 (Thrombin 1536 HTS; hits were confirmed in this assay)]; type: functional
[10] = molecular target: DNA dC->dU-editing enzyme APOBEC-3G (Homo sapiens, UniProt Q9HC16); test: Dose Response confirmation of small molecule APOBEC3G DNA Deaminase Inhibitors via a fluorescence-based single-stranded DNA deaminase assay. [Related pubchem assays (depositor defined):AID493012, AID493028]; type: functional
[11] = molecular target: Eukaryotic translation initiation factor 4E (Mus musculus, UniProt P63073); test: eIF4E–eIF4G protein interaction inhibitors, dose response, biochemical, TR-FRET (AID 855); type: functional;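 also: potency for disrupting eIF4E binding to eIF4GI seen as loss of FRET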
Estrogen receptor = molecular target: T5, Estrogen receptor (Homo sapiens, UniProt P03372);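 also: potency for inhibiting coactivator peptide recruitment to the receptor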
T5 sequence (P03372 whole entry): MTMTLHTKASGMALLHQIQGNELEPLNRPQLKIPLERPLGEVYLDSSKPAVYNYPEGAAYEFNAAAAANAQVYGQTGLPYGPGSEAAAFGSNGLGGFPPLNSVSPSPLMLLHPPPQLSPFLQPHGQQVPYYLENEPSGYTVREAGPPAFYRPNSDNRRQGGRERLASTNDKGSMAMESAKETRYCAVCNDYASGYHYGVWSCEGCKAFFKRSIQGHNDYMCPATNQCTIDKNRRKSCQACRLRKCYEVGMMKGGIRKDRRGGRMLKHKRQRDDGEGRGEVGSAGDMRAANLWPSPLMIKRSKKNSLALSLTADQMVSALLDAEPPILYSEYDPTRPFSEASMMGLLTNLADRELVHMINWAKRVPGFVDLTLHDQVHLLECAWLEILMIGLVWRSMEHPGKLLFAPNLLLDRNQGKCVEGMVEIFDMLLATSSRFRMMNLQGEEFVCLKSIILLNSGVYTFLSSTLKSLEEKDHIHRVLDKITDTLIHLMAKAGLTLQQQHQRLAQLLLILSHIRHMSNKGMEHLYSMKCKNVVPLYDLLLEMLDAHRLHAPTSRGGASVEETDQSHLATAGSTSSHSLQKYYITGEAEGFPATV

[12] = molecular target: Voltage-dependent T-type calcium channel subunit alpha-1H (Homo sapiens, UniProt O95180); type: functional;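 also: channel activity triggered by adding a high calcium stimulation buffer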
Escherichia coli = test: microbe, parasite or virus in culture
CAAX prenyl protease 2 = molecular target: T6, CAAX prenyl protease 2 (Saccharomyces cerevisiae S288c, UniProt Q03530); type: biochemical
T6 sequence (Q03530 whole entry): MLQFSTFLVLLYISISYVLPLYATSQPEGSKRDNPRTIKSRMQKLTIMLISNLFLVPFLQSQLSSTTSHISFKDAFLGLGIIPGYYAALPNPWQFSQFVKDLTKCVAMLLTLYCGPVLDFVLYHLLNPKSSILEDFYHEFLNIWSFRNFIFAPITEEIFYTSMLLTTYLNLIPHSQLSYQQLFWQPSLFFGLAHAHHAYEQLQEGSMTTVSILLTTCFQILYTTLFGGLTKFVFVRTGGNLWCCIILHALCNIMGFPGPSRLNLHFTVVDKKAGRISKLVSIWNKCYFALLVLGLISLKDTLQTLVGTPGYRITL

Estrogen receptor beta = Estrogen receptor beta (Homo sapiens, UniProt Q92731);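 also: recombinant ER-beta bound to coactivator SRC1 peptide in presence of estradiol agonist; inhibitors block coactivator peptide binding and lower the FRET signal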
Cytochrome P450 2C9 [13] = molecular target: T7, Cytochrome P450 2C9 (Homo sapiens, UniProt P11712)
Cytochrome P450 3A4 = Cytochrome P450 3A4 (Homo sapiens, UniProt P08684);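 also: CYP3A4 tested as one member of a cytochrome P450 panel screen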
Cytochrome P450 2C9 [14] = molecular target: T7, Cytochrome P450 2C9; remark: listed apart in the source
[15] = molecular target: T8, Alkaline phosphatase, tissue-nonspecific isozyme (Homo sapiens, UniProt P05186); test: human TNAP enzyme inhibitors, SAR follow-up, biochemical, luminescent, dose response (AID 1056)
T8 sequence (P05186 whole entry): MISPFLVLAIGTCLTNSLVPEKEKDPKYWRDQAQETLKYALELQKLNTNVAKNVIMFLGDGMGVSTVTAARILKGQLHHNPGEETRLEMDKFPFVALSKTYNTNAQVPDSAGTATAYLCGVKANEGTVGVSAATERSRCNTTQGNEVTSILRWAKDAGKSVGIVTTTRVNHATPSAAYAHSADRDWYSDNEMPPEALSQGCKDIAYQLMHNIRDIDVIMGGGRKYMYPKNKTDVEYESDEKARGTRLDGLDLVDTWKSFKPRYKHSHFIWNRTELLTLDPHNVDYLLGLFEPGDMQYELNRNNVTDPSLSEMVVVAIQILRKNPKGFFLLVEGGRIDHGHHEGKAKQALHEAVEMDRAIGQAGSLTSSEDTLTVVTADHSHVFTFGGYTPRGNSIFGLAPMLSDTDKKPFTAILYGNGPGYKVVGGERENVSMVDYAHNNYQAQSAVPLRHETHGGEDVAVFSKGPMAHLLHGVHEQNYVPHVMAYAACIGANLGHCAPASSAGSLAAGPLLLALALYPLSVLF

[16] = molecular target: Glyceraldehyde-3-phosphate dehydrogenase (Homo sapiens, UniProt P04406)
Cytochrome P450 2C19 = Cytochrome P450 2C19 (Homo sapiens, UniProt P33261); test: Cytochrome panel assay with activity outcomes. Panel member name: p450-cyp2c19 Compounds with AC50 equal or less than 10 uM are considered active; type: functional; conditions: read-out: AC50
[17] = molecular target: FAD-linked sulfhydryl oxidase ALR (Homo sapiens, UniProt P55789); test: inhibitors of human ALR sulfhydryl oxidase, dose response, biochemical, H2O2 detection, luminescence, cherry-pick (AID 493248)

Chain of Glyceraldehyde-3-phosphate dehydrogenase (P04406 whole entry): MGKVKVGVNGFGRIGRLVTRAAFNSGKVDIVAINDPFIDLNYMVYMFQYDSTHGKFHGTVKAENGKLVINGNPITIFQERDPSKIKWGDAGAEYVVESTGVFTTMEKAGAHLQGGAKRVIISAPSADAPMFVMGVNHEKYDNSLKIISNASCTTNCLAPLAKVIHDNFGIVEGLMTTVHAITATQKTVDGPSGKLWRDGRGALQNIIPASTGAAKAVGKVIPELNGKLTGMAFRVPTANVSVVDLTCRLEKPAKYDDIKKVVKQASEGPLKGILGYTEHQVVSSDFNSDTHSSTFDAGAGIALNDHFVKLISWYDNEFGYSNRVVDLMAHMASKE
Chain of Voltage-dependent T-type calcium channel subunit alpha-1H (O95180 whole entry): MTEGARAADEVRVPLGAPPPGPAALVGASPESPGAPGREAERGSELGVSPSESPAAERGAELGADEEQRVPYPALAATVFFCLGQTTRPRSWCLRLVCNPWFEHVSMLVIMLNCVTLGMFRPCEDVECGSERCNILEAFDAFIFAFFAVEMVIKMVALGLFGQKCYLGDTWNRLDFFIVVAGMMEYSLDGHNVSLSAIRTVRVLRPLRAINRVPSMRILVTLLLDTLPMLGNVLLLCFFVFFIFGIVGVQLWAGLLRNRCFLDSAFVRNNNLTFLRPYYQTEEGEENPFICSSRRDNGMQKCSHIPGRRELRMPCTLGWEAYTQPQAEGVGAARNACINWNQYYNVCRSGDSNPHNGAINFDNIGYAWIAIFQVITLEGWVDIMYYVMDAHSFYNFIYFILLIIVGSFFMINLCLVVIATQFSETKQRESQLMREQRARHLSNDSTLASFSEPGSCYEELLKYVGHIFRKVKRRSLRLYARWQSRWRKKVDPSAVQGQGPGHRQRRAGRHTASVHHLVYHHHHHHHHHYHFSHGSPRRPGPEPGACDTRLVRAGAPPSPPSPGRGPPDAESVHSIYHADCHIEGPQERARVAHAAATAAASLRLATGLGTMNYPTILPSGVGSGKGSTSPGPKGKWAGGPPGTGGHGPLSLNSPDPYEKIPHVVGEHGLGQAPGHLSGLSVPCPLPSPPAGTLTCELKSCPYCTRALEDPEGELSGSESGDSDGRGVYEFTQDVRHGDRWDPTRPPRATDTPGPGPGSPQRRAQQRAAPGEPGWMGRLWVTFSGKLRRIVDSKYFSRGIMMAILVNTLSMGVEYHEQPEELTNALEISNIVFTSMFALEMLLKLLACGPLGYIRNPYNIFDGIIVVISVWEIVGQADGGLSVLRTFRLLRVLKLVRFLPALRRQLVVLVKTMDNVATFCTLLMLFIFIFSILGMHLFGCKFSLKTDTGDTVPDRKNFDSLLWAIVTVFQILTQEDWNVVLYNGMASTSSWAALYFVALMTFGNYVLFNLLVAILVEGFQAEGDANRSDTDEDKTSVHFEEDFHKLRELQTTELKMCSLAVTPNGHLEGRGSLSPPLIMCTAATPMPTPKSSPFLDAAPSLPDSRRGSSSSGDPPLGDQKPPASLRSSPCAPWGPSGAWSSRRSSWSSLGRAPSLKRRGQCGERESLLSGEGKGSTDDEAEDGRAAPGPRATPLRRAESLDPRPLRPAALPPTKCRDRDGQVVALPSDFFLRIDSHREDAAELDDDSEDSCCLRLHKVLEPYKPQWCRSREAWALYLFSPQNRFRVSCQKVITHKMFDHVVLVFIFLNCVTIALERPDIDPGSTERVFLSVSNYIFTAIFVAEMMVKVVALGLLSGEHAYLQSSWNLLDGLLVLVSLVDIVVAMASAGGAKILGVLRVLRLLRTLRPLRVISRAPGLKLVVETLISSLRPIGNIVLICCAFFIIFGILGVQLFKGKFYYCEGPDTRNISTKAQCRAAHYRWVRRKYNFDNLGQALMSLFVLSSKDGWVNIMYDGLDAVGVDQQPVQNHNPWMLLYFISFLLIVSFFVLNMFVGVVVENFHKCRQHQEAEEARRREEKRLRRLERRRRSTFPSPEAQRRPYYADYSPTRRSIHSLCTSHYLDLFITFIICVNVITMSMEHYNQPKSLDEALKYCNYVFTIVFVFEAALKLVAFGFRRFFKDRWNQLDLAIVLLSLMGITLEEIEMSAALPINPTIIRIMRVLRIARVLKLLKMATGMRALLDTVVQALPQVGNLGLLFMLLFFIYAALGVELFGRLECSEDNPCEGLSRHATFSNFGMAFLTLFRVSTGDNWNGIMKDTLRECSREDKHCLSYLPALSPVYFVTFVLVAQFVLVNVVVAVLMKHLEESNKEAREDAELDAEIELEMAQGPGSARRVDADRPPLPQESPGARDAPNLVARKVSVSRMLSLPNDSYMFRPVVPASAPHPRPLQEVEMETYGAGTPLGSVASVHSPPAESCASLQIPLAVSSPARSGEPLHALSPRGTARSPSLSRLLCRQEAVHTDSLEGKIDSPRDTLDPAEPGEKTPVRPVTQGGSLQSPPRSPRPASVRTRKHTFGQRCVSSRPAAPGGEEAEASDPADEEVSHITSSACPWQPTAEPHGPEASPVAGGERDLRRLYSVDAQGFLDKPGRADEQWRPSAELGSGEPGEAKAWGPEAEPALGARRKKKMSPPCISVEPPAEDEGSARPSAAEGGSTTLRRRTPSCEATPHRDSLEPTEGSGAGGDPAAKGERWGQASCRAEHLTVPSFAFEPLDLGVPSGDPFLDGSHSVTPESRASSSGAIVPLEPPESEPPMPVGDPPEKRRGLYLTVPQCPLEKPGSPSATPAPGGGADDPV
T2 sequence (P37231 whole entry): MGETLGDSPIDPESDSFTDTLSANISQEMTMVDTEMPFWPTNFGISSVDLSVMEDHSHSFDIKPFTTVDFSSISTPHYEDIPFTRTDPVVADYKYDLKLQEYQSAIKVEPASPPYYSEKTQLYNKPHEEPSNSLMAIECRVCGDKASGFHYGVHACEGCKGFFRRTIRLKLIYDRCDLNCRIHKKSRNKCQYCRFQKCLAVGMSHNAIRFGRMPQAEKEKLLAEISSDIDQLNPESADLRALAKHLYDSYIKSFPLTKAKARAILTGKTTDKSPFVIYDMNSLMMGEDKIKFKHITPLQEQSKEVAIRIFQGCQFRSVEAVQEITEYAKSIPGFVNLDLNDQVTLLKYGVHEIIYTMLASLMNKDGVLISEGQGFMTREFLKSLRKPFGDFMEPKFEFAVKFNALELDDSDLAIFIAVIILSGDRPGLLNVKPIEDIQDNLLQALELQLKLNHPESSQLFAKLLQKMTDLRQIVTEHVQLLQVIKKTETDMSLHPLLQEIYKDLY
T2 sequence (Q15788 whole entry, further chain): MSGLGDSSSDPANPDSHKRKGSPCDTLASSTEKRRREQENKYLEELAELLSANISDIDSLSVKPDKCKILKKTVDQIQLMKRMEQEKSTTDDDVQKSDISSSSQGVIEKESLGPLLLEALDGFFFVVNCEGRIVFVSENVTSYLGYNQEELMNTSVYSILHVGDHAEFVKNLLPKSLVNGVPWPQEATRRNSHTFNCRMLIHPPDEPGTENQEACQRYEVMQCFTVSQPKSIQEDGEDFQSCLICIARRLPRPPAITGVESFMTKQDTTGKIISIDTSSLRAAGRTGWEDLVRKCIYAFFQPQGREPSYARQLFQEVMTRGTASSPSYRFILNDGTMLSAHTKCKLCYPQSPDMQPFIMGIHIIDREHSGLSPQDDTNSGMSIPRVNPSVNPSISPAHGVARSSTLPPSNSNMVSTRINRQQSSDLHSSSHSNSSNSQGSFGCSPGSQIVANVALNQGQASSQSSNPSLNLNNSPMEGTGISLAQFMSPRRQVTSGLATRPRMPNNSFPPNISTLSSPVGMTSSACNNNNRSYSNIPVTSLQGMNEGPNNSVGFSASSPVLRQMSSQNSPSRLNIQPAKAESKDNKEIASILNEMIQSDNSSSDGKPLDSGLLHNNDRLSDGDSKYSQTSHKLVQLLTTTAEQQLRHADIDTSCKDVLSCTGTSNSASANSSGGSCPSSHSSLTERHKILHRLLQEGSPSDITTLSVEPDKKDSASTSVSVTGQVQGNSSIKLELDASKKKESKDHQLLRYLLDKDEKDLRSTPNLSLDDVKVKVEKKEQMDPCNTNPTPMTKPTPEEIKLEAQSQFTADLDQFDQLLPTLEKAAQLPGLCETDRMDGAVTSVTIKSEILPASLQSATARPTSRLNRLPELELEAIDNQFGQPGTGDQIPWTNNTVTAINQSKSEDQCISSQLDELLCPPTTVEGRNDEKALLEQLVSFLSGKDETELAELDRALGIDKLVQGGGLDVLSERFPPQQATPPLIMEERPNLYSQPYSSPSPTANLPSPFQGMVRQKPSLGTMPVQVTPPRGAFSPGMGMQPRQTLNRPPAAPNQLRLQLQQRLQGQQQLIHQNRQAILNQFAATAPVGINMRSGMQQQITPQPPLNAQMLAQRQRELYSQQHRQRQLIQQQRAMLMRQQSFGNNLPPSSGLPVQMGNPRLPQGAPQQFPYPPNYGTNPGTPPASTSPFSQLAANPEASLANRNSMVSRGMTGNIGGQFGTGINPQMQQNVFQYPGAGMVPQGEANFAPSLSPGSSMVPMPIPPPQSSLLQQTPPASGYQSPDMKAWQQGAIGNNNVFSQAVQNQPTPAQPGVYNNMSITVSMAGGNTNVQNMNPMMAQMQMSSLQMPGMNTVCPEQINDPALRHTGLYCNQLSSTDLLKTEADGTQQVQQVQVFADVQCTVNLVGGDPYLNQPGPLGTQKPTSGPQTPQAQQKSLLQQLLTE
T7 sequence (P11712 whole entry): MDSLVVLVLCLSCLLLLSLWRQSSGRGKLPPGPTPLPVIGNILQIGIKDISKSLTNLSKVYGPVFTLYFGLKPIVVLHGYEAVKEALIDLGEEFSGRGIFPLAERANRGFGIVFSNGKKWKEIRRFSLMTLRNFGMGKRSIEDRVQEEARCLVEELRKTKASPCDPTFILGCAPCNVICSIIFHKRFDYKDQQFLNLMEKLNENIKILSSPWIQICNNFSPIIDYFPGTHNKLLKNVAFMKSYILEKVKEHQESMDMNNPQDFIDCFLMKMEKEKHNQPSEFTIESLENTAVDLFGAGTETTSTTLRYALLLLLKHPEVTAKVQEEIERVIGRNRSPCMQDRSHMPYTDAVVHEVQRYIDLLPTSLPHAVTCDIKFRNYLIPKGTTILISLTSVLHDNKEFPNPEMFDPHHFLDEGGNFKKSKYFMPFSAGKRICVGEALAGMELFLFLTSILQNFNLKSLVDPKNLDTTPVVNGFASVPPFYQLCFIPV

## COc1ccc(N2CCC(CNC(=O)Nc3cccc(OC)c3)C2)cc1 (stereo unspecified)
[1]
  IC50: > 50 µM (not active)
Large T antigen
  IC50: 43.3 µM (active)
[2]
  IC50: 3.18 µM (not active)

## Cn1c(S)nnc1-c1sc2cc(C(F)(F)F)cnc2c1-c1cccs1
[3]
  EC50: 6.65 µM (active)
[4]
  EC50: 12.6 µM (not active)
[5]
  EC50: 34 µM (not active)

## COc1ccc(C(=O)C(C)(C)NO)cc1
[6]
  EC50: > 79.4 µM (not active)
[7]
  EC50: > 79.4 µM (not active)
[8]
  EC50: > 79.4 µM (not active)

## C[N+](C)(CCOc1ccccc1)Cc1ccccc1.O=C([O-])c1cc2ccccc2c(Br)c1O
[9]
  AC50: 0.517 µM (active)

## O=C(NCc1ccco1)c1cnc2ccc(S(=O)(=O)N3CCOCC3)cc2c1O
Prothrombin
  IC50: 0.943 µM (active)

## Clc1ccc(Cl)c(-c2nn3c(COc4ccccc4)nnc3s2)c1
[10]
  IC50: 37 µM (active)
[11]
  IC50: > 64 µM (inactive)

## COc1ccc(-c2cc(-c3cccs3)c(C#N)c(SCC(=O)NCc3ccco3)n2)cc1
Estrogen receptor
  IC50: > 50 µM (not active)

## CCCn1cc(SCC(=O)Nc2ccc3c(c2)OCO3)c2ccccc21
[12]
  EC50: 5.11 µM (active)

## O=C(Nc1ccccc1Cl)C1CCN(Cc2cnn(-c3ccccc3)c2-n2cccc2)CC1
[12]
  EC50: 2.74 µM (active)

## CN(CCCNC(=O)CSc1cc(=O)n(C)c2ccc(Cl)cc12)Cc1ccccc1
[3]
  EC50: > 79.4 µM (inactive)
[4]
  EC50: > 79.4 µM (not active)
[5]
  EC50: > 79.4 µM (not active)

## COc1cc(OC)c(C2CC(=O)N3CN(C)CSC3=C2C#N)cc1OC (stereo unspecified)
[1]
  IC50: 23.1 µM (active)
Large T antigen
  IC50: 61.1 µM (active)

## CC(=O)Nc1cccc(NC(=O)c2cc3ccccc3o2)c1
[9]
  AC50: 11.5 µM (active)

## Cn1c(=O)cc(SCC(=O)NCCCN2CCN(c3ccccc3F)CC2)c2ccccc21
[3]
  EC50: > 79.4 µM (inactive)
[4]
  EC50: > 79.4 µM (not active)
[5]
  EC50: > 79.4 µM (not active)

## Cc1ccc(C)c(NC(=O)CCN2CCc3ccccc3C2)c1
Escherichia coli
  AC50: 58.7 µM (active)

## Cc1cc2cc(CCNC(=O)c3c(-c4ccccc4Cl)noc3C)c(=O)[nH]c2cc1C
[12]
  EC50: 4.77 µM (active)

## CN(C)CCN(C(=O)c1ccc2ccccc2c1)c1nc2ccc(F)cc2s1
CAAX prenyl protease 2
  AC50: 6.44 µM (active)

## CCOc1ccc(C(=O)CCN2CCCCC2)cc1
Estrogen receptor beta
  IC50: > 50 µM (not active)

## O=C(CSc1cccc(C(F)(F)F)c1)NC(=O)NCc1ccco1
Estrogen receptor
  IC50: > 50 µM (not active)
[12]
  EC50: 1.67 µM (active)

## CCOC(=O)c1c(NC(=O)CSc2nnc(CNc3ccc(F)cc3)o2)sc(C(C)=O)c1C
[6]
  EC50: 42.5 µM (not active)
[7]
  EC50: 54.3 µM (not active)
[8]
  EC50: > 79.4 µM (not active)

## N#Cc1c(-c2ccccc2)cc(C2CC2)nc1SCC(=O)c1cccs1
[3]
  EC50: 7.51 µM (active)
[4]
  EC50: 7.18 µM (active)
[5]
  EC50: 20.6 µM (not active)
Cytochrome P450 2C9 [13]
  AC50: 0.0447 µM (inconclusive)
Cytochrome P450 3A4
  AC50: 14.1 µM (inconclusive)

## CC(C(=O)NCc1ccc2c(c1)OCO2)N1c2cccc3cccc(c23)S1(=O)=O (stereo unspecified)
[12]
  EC50: 9.35 µM (active)
Cytochrome P450 2C9 [14]
  AC50: inconclusive

## O=C(O)c1cc(-c2ccc(O)cc2)n[nH]1
[15]
  IC50: 14 µM (active)
[16]
  IC50: > 100 µM (not active)

## O=C(Oc1ccc2c(c1)OCC2=O)c1ccccc1
Estrogen receptor beta
  IC50: > 50 µM (not active)

## COc1ccc(-c2cc(C(=O)O)n[nH]2)cc1
[15]
  IC50: 6.72 µM (active)
[16]
  IC50: > 100 µM (not active)

## COc1cccc(Cc2nnc(N3C(=O)[C@H]4CC=CC[C@H]4C3=O)[nH]2)c1
[15]
  IC50: 2.48 µM (active)
[16]
  IC50: > 100 µM (not active)

## O=C(NCc1ccccn1)c1cn(-c2ccccc2)nc1-c1ccc(Cl)cc1
Prothrombin
  IC50: > 50 µM (not active)

## COc1ccc(/C=C/C(=O)OCc2cc(=O)n3c(n2)sc2ccccc23)cc1
Escherichia coli
  AC50: > 150 µM (inactive)

## COc1cccc(C(=O)n2c(SC)nc3cc4c(cc32)OCCO4)c1
Prothrombin
  IC50: 0.0235 µM (active)
Cytochrome P450 2C19
  AC50: 35.5 µM (inconclusive)

## O=C(NCc1ccccc1)c1[nH]cnc1C(=O)N1CCN(c2ccccc2)CC1
[17]
  AC50: 6.21 µM (active)
Escherichia coli
  AC50: 38.8 µM (active)

## Cc1ccc(C(=O)N2CC2C)cc1 (stereo unspecified)
Escherichia coli
  AC50: 25.4 µM (active)

## CCc1nc(/C=C2\C(=O)Nc3ccccc32)c[nH]1
[9]
  AC50: 10.5 µM (active)

## C(=N\c1cccc2c(/N=C/c3ccco3)cccc12)/c1ccco1
[1]
  IC50: > 50 µM (not active)

## COc1cccc(/C=c2/s/c(=C(\C#N)C(=O)N3CCOCC3)n(-c3ccccc3)c2=O)c1
[6]
  EC50: > 79.4 µM (not active)
[7]
  EC50: > 79.4 µM (not active)
[8]
  EC50: > 79.4 µM (not active)

## CC(CO)(CO)NCc1ccc(-c2ccccc2)cc1
Prothrombin
  IC50: > 50 µM (not active)
